Measurements taken from US10092523B2, “Long acting pharmaceutical compositions” (priority 2014, dated 2018).
Converted amounts (≈) assume the structure as drawn.

How the values were obtained:
HIV [1] = test: human protein adjusted IC90; type: cell-based; conditions: Human immunodeficiency virus 1; reference line in FIG. 1 and FIG. 2
HIV [2] = conditions: cited from earlier work

IC90 (HIV [1]) [ng/mL]	Compound	reduced HIV viral load by a mean of (HIV [2]; patients with trough levels >=20 μg/mL and without key baseline Gag polymorphisms at Q369, V370 or T371) [log10/mL]	HIV viral load reduction versus patients without Gag polymorphisms (HIV [2]; users with Gag polymorphisms at Q369, V370 or T371)
4.31 (≈ 5.32 nM)	CC(C)C1=C2[C@H]3CC[C@@H]4[C@@]5(C)CC[C@H](OC(=O)CC(C)(C)C(=O)O)C(C)(C)[C@@H]5CC[C@@]4(C)[C@]3(C)CC[C@@]2([C@@H](O)CN(CCN(C)C)Cc2ccc(Cl)cc2)CC1=O [first compound, 4-(((3aR,5aR,5bR,7aR,9S,11aR,11bR,13aS)-3a-((R)-2-((4-Chlorobenzyl)(2-(dimethylamino)ethyl)amino)-1-hydroxyethyl)-1-isopropyl-5a,5b,8,8,11a-pentamethyl-2-oxo-3,3a,4,5,5a,5b, 6,7,7a,8,9,10,11,11a,11b,12,13,13a-octadecahydro-2H-cyclopenta[a]chrysen-9-yl)oxy)-2,2-dimethyl-4-oxobutanoic acid]		
	C=C(C)[C@@H]1CC[C@]2(C(=O)O)CC[C@]3(C)[C@H](CC[C@@H]4[C@@]5(C)CC[C@H](OC(=O)CC(C)(C)C(=O)O)C(C)(C)[C@@H]5CC[C@]43C)[C@@H]12 [Bevirimat]	1.3	significantly lower load reductions
